One assay has as its system THP-1 cells. Put plainly: TNFα generation assay. In kind it is cell-based, human. The protocol:
THP-1 cells (2×10^5 cells/ml), which were human monocytoid cells, were cultured in the presence of 10 ng/ml IFN-γ (Roche) for 2 days, so that the cells were induced to differentiate into macrophage-like cells. The differentiation-induced THP-1 cells were recovered, and the cells (1×10^6 cell/ml) were then allowed to react with a predetermined concentration of test compound at room temperature for 30 minutes. On the other hand, 100 μl of human IgG (10 μg/ml, SIGMA-ALDRICH) diluted with PBS was added to a 96-well plate, and it was then incubated at room temperature overnight. Thereafter, the resultant was washed with PBS twice to produce a human IgG-coated plate. Subsequently, a cell solution that contained a compound was inoculated on the human IgG-coated plate (5×10^4 cells/well), and it was then cultured for 7 hours. Thereafter, the cultured solution was recovered, and the amount of TNFα secreted into the culture solution was then measured by the ELISA method (Roche/R & D Systems) or the AlphaLISA method (PerkinElmer).

Assay [1] concerns the target T1, glutathione S-transferase (GST)-fused full-length human Syk protein (Homo sapiens, UniProt P43405).
T1 construct: (GST)-fused full-length human Syk protein; GST (glutathione S-transferase); purchased Carna Biosciences
Put plainly: Syk enzyme assay. The assay is classed as biochemical. The settings on record: Syk enzyme assay, Test Example 1; read-out: IC50 of Syk-inhibitory activity. A digest of the protocol: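 IC50 values come from a time-resolved FRET readout (615 and 665 nm) of substrate phosphorylation, measured after an EDTA stop and 1 h antibody binding. The kinase reaction ran 40 min at room temperature with 27 μM ATP and 0.4 μM biotin-peptide, following a 15 min compound preincubation with baculovirus-made GST-full-length human Syk.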

Where [2] appears, read: THP-1 cells, Table 22, read-out: IC50 in TNFα generation assay.
Setting [3] is: Homo sapiens, THP-1, THP-1 cells, Table 22, read-out: IC50 in TNFα generation assay.
[4] abbreviates: Homo sapiens, THP-1, 7 h, IFN-γ-differentiated THP-1 cells on human IgG-coated plate, cultured 7 hours, read-out: TNFα generation inhibitory activity (IC50).

Like-named read-outs stand apart in the source and are kept apart here.

As for “6-(((2R,3S)-3-aminobutan-2-yl)amino)-2- (3,5-dimethoxyphenyl)amino)-5- fluoronicotinamide 6-(((2S,3R)-3-aminobutan-2-yl)amino)-2- (3,5-dimethoxyphenyl)amino)-5- fluoronicotinamide [Example 006-107]”, the IC50 in the assay on THP-1 cells (setting [2]) is < 0.065 µM; in assay [1] it was < 0.01 µM. Regarding “6-(((2R,3S)-3-aminobutan-2-yl)amino)-2- ((5,6-dimethylpyridin-3-yl)amino)-5- fluoronicotinamide 6-(((2S,3R)-3-aminobutan-2-yl)amino)-2- (5,6-dimethylpyridin-3-yl)amino)-5- fluoronicotinamide [Example 006-194]”, the figures for the IC50 (in the assay with THP-1 cells (setting [2]); in assay [1]) were 0.065 to 0.13 µM and 0.01 to 0.05 µM, respectively.

As to `C[C@H](N)[C@@H](C)Nc1nc(Nc2ccc3c(cnn3C)c2)c(C(N)=O)cc1F` (racemic) [Example 006-109, 6-(((2R,3S)-3-aminobutan-2-yl)amino)-5-fluoro-2-((1-methyl-1H-indazol-5-yl)amino)nicotinamide 6-(((2S,3R)-3-aminobutan-2-yl)amino)-5-fluoro-2-((1-methyl-1H-indazol-5-yl)amino)nicotinamide], the IC50 is 0.065 to 0.13 µM in the assay with THP-1 cells (setting [3]) and < 0.01 µM in assay [1]. In the same order, the values of `C[C@H](N)[C@@H](C)Nc1nc(Nc2cccc(-n3nccn3)c2)c(C(N)=O)cc1F` (racemic) [Example 006-111, 2-((3-(2H-1,2,3-triazol-2-yl)phenyl)amino)-6-(((2R,3S)-3-aminobutan-2-yl)amino)-5-fluoronicotinamide 2-((3-(2H-1,2,3-triazol-2-yl)phenyl)amino)-6-(((2S,3R)-3-aminobutan-2-yl)amino)-5-fluoronicotinamide] are 0.065 to 0.13 µM and < 0.01 µM.

For the molecule `COc1cc(Nc2nc(N[C@H](C)[C@H](C)N)c(F)cc2C(N)=O)cc(OC)n1` (racemic) [Example 006-112, 6-(((2R,3S)-3-aminobutan-2-yl)amino)-2-((2,6-dimethoxypyridin-4-yl)amino)-5-fluoronicotinamide 6-(((2S,3R)-3-aminobutan-2-yl)amino)-2-((2,6-dimethoxypyridin-4-yl)amino)-5-fluoronicotinamide], the values for the IC50 (in the assay on THP-1 cells (setting [3]); in assay [1]) were 0.065 to 0.13 µM and < 0.01 µM, respectively. Consider `C[C@H](N)[C@@H](C)Nc1nc(Nc2cccc(-n3ccnn3)c2)c(C(N)=O)cc1F` (racemic) [Example 006-121, 2-((3-(1H-1,2,3-triazol-1-yl)phenyl)amino)-6-(((2R,3S)-3-aminobutan-2-yl)amino)-5-fluoronicotinamide 2-((3-(1H-1,2,3-triazol-1-yl)phenyl)amino)-6-(((2S,3R)-3-aminobutan-2-yl)amino)-5-fluoronicotinamide], for which the IC50 is 0.13 to 0.2 µM in the assay with THP-1 cells (setting [3]) and < 0.01 µM in assay [1]. As to `COc1ccc2cc(Nc3nc(N[C@H](C)[C@H](C)N)c(F)cc3C(N)=O)cnc2c1` (racemic) [Example 006-174, 6-(((2R,3S)-3-aminobutan-2-yl)amino)-5-fluoro-2-((7-methoxyquinolin-3-yl)amino)nicotinamide 6-(((2S,3R)-3-aminobutan-2-yl)amino)-5-fluoro-2-((7-methoxyquinolin-3-yl)amino)nicotinamide], the IC50 is < 0.065 µM in the assay with THP-1 cells (setting [3]) and < 0.01 µM in assay [1]. For `C[C@H](N)[C@@H](C)Nc1nc(Nc2ccc3cccnc3c2)c(C(N)=O)cc1F` (racemic) [Example 006-182, 6-(((2R,3S)-3-aminobutan-2-yl)amino)-5-fluoro-2-((quinolin-7-yl)amino)nicotinamide 6-(((2S,3R)-3-aminobutan-2-yl)amino)-5-fluoro-2-((quinolin-7-yl)amino)nicotinamide] the same measures were 0.13 to 0.2 µM and < 0.01 µM. For `CCn1ncc2cc(Nc3nc(N[C@H](C)[C@H](C)N)c(F)cc3C(N)=O)ccc21` (racemic) [Example 006-184, 6-(((2R,3S)-3-aminobutan-2-yl)amino)-2-((1-ethyl-1H-indazol-5-yl)amino)-5-fluoronicotinamide 6-(((2S,3R)-3-aminobutan-2-yl)amino)-2-((1-ethyl-1H-indazol-5-yl)amino)-5-fluoronicotinamide] the same measures were 0.065 to 0.13 µM and < 0.01 µM.

`Cc1nc2ccc(Nc3nc(N[C@H](C)[C@H](C)N)c(F)cc3C(N)=O)cc2nc1C` (racemic) [Example 006-185, 6-(((2R,3S)-3-aminobutan-2-yl)amino)-2-((2,3-dimethylquinoxalin-6-yl)amino)-5-fluoronicotinamide 6-(((2S,3R)-3-aminobutan-2-yl)amino)-2-((2,3-dimethylquinoxalin-6-yl)amino)-5-fluoronicotinamide]: the IC50 with THP-1 cells (setting [3]) lay in the range of 0.065 to 0.13 µM; in assay [1], 0.01 to 0.05 µM.

In the case of `CCCOc1cc(Nc2nc(N[C@H](C)[C@H](C)N)c(F)cc2C(N)=O)ccn1` (racemic) [Example 006-187, 6-(((2R,3S)-3-aminobutan-2-yl)amino)-5-fluoro-2-((2-propoxypyridin-4-yl)amino)nicotinamide 6-(((2S,3R)-3-aminobutan-2-yl)amino)-5-fluoro-2-((2-propoxypyridin-4-yl)amino)nicotinamide], the values for the IC50 (in the assay on THP-1 cells (setting [3]); in assay [1]) were 0.13 to 0.2 µM and < 0.01 µM, respectively.

As for `C[C@H](N)[C@@H](C)Nc1nc(Nc2ccc3scnc3c2)c(C(N)=O)cc1F` (racemic) [Example 006-188, 6-(((2R,3S)-3-aminobutan-2-yl)amino)-2-(benzo[d]thiazol-5-ylamino)-5-fluoronicotinamide 6-(((2S,3R)-3-aminobutan-2-yl)amino)-2-(benzo[d]thiazol-5-ylamino)-5-fluoronicotinamide], the IC50 was 0.065 to 0.13 µM with THP-1 cells (setting [3]) and < 0.01 µM in assay [1]. In the case of `C[C@H](N)[C@@H](C)Nc1nc(Nc2cncc(-n3cccn3)c2)c(C(N)=O)cc1F` (racemic) [Example 006-192, 2-((5-(1H-pyrazol-1-yl)pyridin-3-yl)amino)-6-(((2R,3S)-3-aminobutan-2-yl)amino)-5-fluoronicotinamide 2-((5-(1H-pyrazol-1-yl)pyridin-3-yl)amino)-6-(((2S,3R)-3-aminobutan-2-yl)amino)-5-fluoronicotinamide], the IC50 lay within 0.065 to 0.13 µM with THP-1 cells (setting [3]) and 0.01 to 0.05 µM in assay [1]. For `C[C@H](N)[C@@H](C)Nc1nc(Nc2cncc(C3CC3)c2)c(C(N)=O)cc1F` (racemic) [Example 006-193, 6-(((2R,3S)-3-aminobutan-2-yl)amino)-2-((5-cyclopropylpyridin-3-yl)amino)-5-fluoronicotinamide 6-(((2S,3R)-3-aminobutan-2-yl)amino)-2-((5-cyclopropylpyridin-3-yl)amino)-5-fluoronicotinamide] the same measures were < 0.065 µM and < 0.01 µM.

As for `C[C@H](N)[C@@H](C)Nc1nc(Nc2cncc(-c3ccccc3)c2)c(C(N)=O)cc1F` (racemic) [Example 006-195, 6-(((2R,3S)-3-aminobutan-2-yl)amino)-5-fluoro-2-((5-phenylpyridin-3-yl)amino)nicotinamide 6-(((2S,3R)-3-aminobutan-2-yl)amino)-5-fluoro-2-((5-phenylpyridin-3-yl)amino)-nicotinamide], the IC50 is < 0.065 µM in the assay with THP-1 cells (setting [3]) and < 0.01 µM in assay [1]. Regarding `Cc1cnc2cc(Nc3nc(N[C@H](C)[C@H](C)N)c(F)cc3C(N)=O)ccc2n1` (racemic) [Example 006-196, 6-(((2R,3S)-3-aminobutan-2-yl)amino)-5-fluoro-2-((2-methylquinoxalin-6-yl)amino)nicotinamide 6-(((2S,3R)-3-aminobutan-2-yl)amino)-5-fluoro-2-((2-methylquinoxalin-6-yl)amino)nicotinamide], the IC50 with THP-1 cells (setting [3]) lay within 0.065 to 0.13 µM; in assay [1], 0.01 to 0.05 µM.

Regarding `CC[C@@H](Nc1nc(Nc2ccc3ncccc3c2)c(C(N)=O)cc1F)C(N)=O` [Example 12-31, 6-(((2R)-1-amino-1-oxobutan-2-yl)amino)-5-fluoro-2-(quinolin-6-ylamino)nicotinamide], in the assay on THP-1 cells (setting [4]), the IC50 is ≤ 0.2 µM. Consider `NC(=O)c1cc(F)c(NC[C@@H](N)c2ccccc2)nc1Nc1ccc2ncccc2c1` [Example 14-5, 6-(((2S)-2-amino-2-phenylethyl)amino)-5-fluoro-2-(quinolin-6-ylamino)nicotinamide], for which the IC50 in the assay on THP-1 cells (setting [4]) was ≤ 0.2 µM. With `COC[C@H](N)CNc1nc(Nc2ccc3ncccc3c2)c(C(N)=O)cc1F` [Example 14-6, 6-(((2R)-2-amino-3-methoxypropyl)amino)-5-fluoro-2-(quinolin-6-ylamino)nicotinamide], the IC50 in the assay with THP-1 cells (setting [4]) is ≤ 0.2 µM. In the case of `CC(C)C[C@H](N)CNc1nc(Nc2ccc3ncccc3c2)c(C(N)=O)cc1F` [Example 14-10, 6-(((2S)-2-amino-4-methylpentyl)amino)-5-fluoro-2-(quinolin-6-ylamino)nicotinamide], the IC50 in the assay with THP-1 cells (setting [4]) is ≤ 0.2 µM. Take `COc1cc(Nc2nc(N[C@@H]3CCCC[C@@H]3N)c(F)cc2C(N)=O)cc(OC)c1` [Example 22-5, 6-((1R,2S)-2-aminocyclohexylamino)-2-(3,5-dimethoxyphenylamino)-5-fluoronicotinamide]: in the assay on THP-1 cells (setting [4]), the IC50 was ≤ 0.2 µM.

Values taken from patent US8895585B2, “Nicotinamide derivative or salt thereof” (FUJIFILM Corporation, priority 2010, dated 2014).
